Data: the supplement of paper PMC10627819

Key:
Test in all cases: fitness (endpoint OD595 vs no drug) (fraction); higher = more growth
S. pneumoniae D39V = system: S. pneumoniae D39V
Procedure, shortened: (§1)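 Fitness expresses the optical density reached at the stationary-phase transition as a fraction of the robust mean of no-drug control wells. It is capped at 1. Measurements were OD595 every 30 min for 14 h at 37 °C after inoculation of 384-well plates at OD595 0.01 (30 µl, or 55 µl for S. pneumoniae), minus the first reading.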

S. aureus DSM 20231 = system: S. aureus DSM 20231
Procedure, shortened: as §1

S. aureus Newman = system: S. aureus Newman
Procedure, shortened: as §1

B. subtilis 168 = system: B. subtilis 168
Procedure, shortened: as §1
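Also: OD595 on entry to stationary phase over no-drug wells; at most 1.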

CCC[C@@H]1C[C@@H](C(=O)N[C@@H]([C@H]2O[C@H](SC)[C@H](O)[C@@H](O)[C@H]2O)[C@H](C)Cl)N(C)C1 [Clindamycin] + CO/N=C(\C(=O)N[C@@H]1C(=O)N2C(C(=O)[O-])=C(C[N+]3(C)CCCC3)CS[C@H]12)c1csc(N)n1 [Cefepime]
Settings	fitness
S. aureus DSM 20231, first compound 0.125 µg/mL, partner 0.125 µg/mL	0.0728
S. aureus DSM 20231, first compound 0.125 µg/mL, partner 0.25 µg/mL	0.0809
S. aureus DSM 20231, first compound 0.125 µg/mL, partner 0.5 µg/mL	0.0837
S. aureus Newman, first compound 0.0312 µg/mL, partner 0.125 µg/mL	0.781
S. aureus Newman, first compound 0.0312 µg/mL, partner 0.25 µg/mL	0.713
S. aureus Newman, first compound 0.0312 µg/mL, partner 0.5 µg/mL	0.601
S. aureus Newman, first compound 0.125 µg/mL, partner 0.125 µg/mL	0.187
S. aureus Newman, first compound 0.125 µg/mL, partner 0.25 µg/mL	0.158
S. aureus Newman, first compound 0.125 µg/mL, partner 0.5 µg/mL	0.151
S. pneumoniae D39V, first compound 0.0125 µg/mL, partner 0.0078 µg/mL	0.809
S. pneumoniae D39V, first compound 0.0125 µg/mL, partner 0.0155 µg/mL	0.818
S. pneumoniae D39V, first compound 0.0125 µg/mL, partner 0.031 µg/mL	0.802
S. pneumoniae D39V, first compound 0.015 µg/mL, partner 0.007 µg/mL	0.914
S. pneumoniae D39V, first compound 0.015 µg/mL, partner 0.014 µg/mL	0.937
S. pneumoniae D39V, first compound 0.015 µg/mL, partner 0.028 µg/mL	0.841
S. pneumoniae D39V, first compound 0.025 µg/mL, partner 0.0078 µg/mL	0.599
S. pneumoniae D39V, first compound 0.025 µg/mL, partner 0.0155 µg/mL	0.57
S. pneumoniae D39V, first compound 0.025 µg/mL, partner 0.031 µg/mL	0.523
S. pneumoniae D39V, first compound 0.03 µg/mL, partner 0.007 µg/mL	0.771
S. pneumoniae D39V, first compound 0.03 µg/mL, partner 0.014 µg/mL	0.789
S. pneumoniae D39V, first compound 0.03 µg/mL, partner 0.028 µg/mL	0.696
S. pneumoniae D39V, first compound 0.05 µg/mL, partner 0.0078 µg/mL	0.264
S. pneumoniae D39V, first compound 0.05 µg/mL, partner 0.0155 µg/mL	0.255
S. pneumoniae D39V, first compound 0.05 µg/mL, partner 0.031 µg/mL	0.241
S. pneumoniae D39V, first compound 0.06 µg/mL, partner 0.007 µg/mL	0.408
S. pneumoniae D39V, first compound 0.06 µg/mL, partner 0.014 µg/mL	0.411
S. pneumoniae D39V, first compound 0.06 µg/mL, partner 0.028 µg/mL	0.365

CCC[C@@H]1C[C@@H](C(=O)N[C@@H]([C@H]2O[C@H](SC)[C@H](O)[C@@H](O)[C@H]2O)[C@H](C)Cl)N(C)C1 [Clindamycin] + CO[C@@]12[C@H](COC(N)=O)C3=C(C(=O)C(C)=C(N)C3=O)N1C[C@@H]1N[C@@H]12 [Mitomycin C]
Settings	fitness
S. aureus DSM 20231, first compound 0.0312 µg/mL, partner 0.0312 µg/mL	0.466
S. aureus DSM 20231, first compound 0.0312 µg/mL, partner 0.0625 µg/mL	0.35
S. aureus DSM 20231, first compound 0.0625 µg/mL, partner 0.0156 µg/mL	0.149
S. aureus DSM 20231, first compound 0.0625 µg/mL, partner 0.0312 µg/mL	0.117
S. aureus DSM 20231, first compound 0.0625 µg/mL, partner 0.0625 µg/mL	0.103
S. aureus DSM 20231, first compound 0.125 µg/mL, partner 0.0156 µg/mL	0.0347
S. aureus DSM 20231, first compound 0.125 µg/mL, partner 0.0312 µg/mL	0.0369
S. aureus DSM 20231, first compound 0.125 µg/mL, partner 0.0625 µg/mL	0.083
S. aureus Newman, first compound 0.0312 µg/mL, partner 0.0156 µg/mL	0.537
S. aureus Newman, first compound 0.0312 µg/mL, partner 0.0312 µg/mL	0.483
S. aureus Newman, first compound 0.0312 µg/mL, partner 0.0625 µg/mL	0.412
S. aureus Newman, first compound 0.0625 µg/mL, partner 0.0156 µg/mL	0.421
S. aureus Newman, first compound 0.0625 µg/mL, partner 0.0312 µg/mL	0.355
S. aureus Newman, first compound 0.0625 µg/mL, partner 0.0625 µg/mL	0.243
S. aureus Newman, first compound 0.125 µg/mL, partner 0.0156 µg/mL	0.138
S. aureus Newman, first compound 0.125 µg/mL, partner 0.0312 µg/mL	0.163
S. aureus Newman, first compound 0.125 µg/mL, partner 0.0625 µg/mL	0.0658
S. pneumoniae D39V, first compound 0.0125 µg/mL, partner 0.002 µg/mL	0.651
S. pneumoniae D39V, first compound 0.0125 µg/mL, partner 0.004 µg/mL	0.593
S. pneumoniae D39V, first compound 0.0125 µg/mL, partner 0.008 µg/mL	0.495
S. pneumoniae D39V, first compound 0.015 µg/mL, partner 0.001075 µg/mL	0.912
S. pneumoniae D39V, first compound 0.015 µg/mL, partner 0.00215 µg/mL	0.889
S. pneumoniae D39V, first compound 0.015 µg/mL, partner 0.0043 µg/mL	0.752
S. pneumoniae D39V, first compound 0.025 µg/mL, partner 0.002 µg/mL	0.36
S. pneumoniae D39V, first compound 0.025 µg/mL, partner 0.004 µg/mL	0.328
S. pneumoniae D39V, first compound 0.025 µg/mL, partner 0.008 µg/mL	0.322
S. pneumoniae D39V, first compound 0.03 µg/mL, partner 0.001075 µg/mL	0.708
S. pneumoniae D39V, first compound 0.03 µg/mL, partner 0.00215 µg/mL	0.689
S. pneumoniae D39V, first compound 0.03 µg/mL, partner 0.0043 µg/mL	0.57
S. pneumoniae D39V, first compound 0.05 µg/mL, partner 0.002 µg/mL	0.187
S. pneumoniae D39V, first compound 0.05 µg/mL, partner 0.004 µg/mL	0.144
S. pneumoniae D39V, first compound 0.05 µg/mL, partner 0.008 µg/mL	0.155
S. pneumoniae D39V, first compound 0.06 µg/mL, partner 0.001075 µg/mL	0.453
S. pneumoniae D39V, first compound 0.06 µg/mL, partner 0.00215 µg/mL	0.396
S. pneumoniae D39V, first compound 0.06 µg/mL, partner 0.0043 µg/mL	0.306

CCC[C@@H]1C[C@@H](C(=O)N[C@@H]([C@H]2O[C@H](SC)[C@H](O)[C@@H](O)[C@H]2O)[C@H](C)Cl)N(C)C1 [Clindamycin] + N[C@@H]1CONC1=O [Cycloserine D]
fitness, B. subtilis 168, one replicate
Settings	first compound 0.0039 µg/mL	first compound 0.0078 µg/mL	first compound 0.0156 µg/mL
partner 0.125 µg/mL	0.985	0.927	0.879
partner 0.25 µg/mL	0.974	0.859	0.796
partner 0.5 µg/mL	≥ 1	0.901	0.845

fitness
Settings	partner 0.125 µg/mL	partner 0.25 µg/mL	partner 0.375 µg/mL	partner 0.5 µg/mL	partner 0.75 µg/mL	partner 1.5 µg/mL
B. subtilis 168, first compound 0.0625 µg/mL	0.592	0.512	–	0.549	–	–
B. subtilis 168, first compound 0.125 µg/mL	0.413	0.365	–	0.363	–	–
B. subtilis 168, first compound 0.25 µg/mL	0.396	0.348	–	0.329	–	–
S. aureus DSM 20231, first compound 0.0625 µg/mL	–	–	0.0659	–	0.0748	0.0881
S. aureus DSM 20231, first compound 0.125 µg/mL	–	–	0.0216	–	0.0398	0.0593
S. aureus Newman, first compound 0.0312 µg/mL	–	–	0.732	–	0.735	0.746
S. aureus Newman, first compound 0.125 µg/mL	–	–	0.0953	–	0.115	0.103

N[C@@H]1CONC1=O [Cycloserine D] + CC1=C\[C@@H](O)CC(=O)Cc2nc(co2)C(=O)N2CCC=C2C(=O)O[C@H](C(C)C)[C@H](C)/C=C/C(=O)NC\C=C\1 [Virginiamycin M1]
fitness
Settings	first compound 0.125 µg/mL	first compound 0.25 µg/mL	first compound 0.375 µg/mL	first compound 0.5 µg/mL	first compound 0.75 µg/mL	first compound 1.5 µg/mL
B. subtilis 168, partner 0.0625 µg/mL	0.967	0.971	–	0.852	–	–
B. subtilis 168, partner 0.125 µg/mL	0.922	0.909	–	0.916	–	–
B. subtilis 168, partner 0.25 µg/mL	0.921	0.906	–	≥ 1	–	–
S. aureus DSM 20231, partner 0.0625 µg/mL	–	–	≥ 1	–	≥ 1	0.955
S. aureus DSM 20231, partner 0.125 µg/mL	–	–	≥ 1	–	≥ 1	≥ 1
S. aureus DSM 20231, partner 0.25 µg/mL	–	–	0.999	–	1	≥ 1
S. aureus Newman, partner 0.0625 µg/mL	–	–	≥ 1	–	0.969	0.985
S. aureus Newman, partner 0.125 µg/mL	–	–	≥ 1	–	0.98	0.991
S. aureus Newman, partner 0.25 µg/mL	–	–	≥ 1	–	1	0.981

fitness, one replicate
Settings	first compound 0.375 µg/mL	first compound 0.75 µg/mL	first compound 1.5 µg/mL
S. aureus DSM 20231, partner 0.5 µg/mL	0.996	0.99	0.999
S. aureus DSM 20231, partner 1 µg/mL	0.958	0.984	0.908
S. aureus Newman, partner 0.5 µg/mL	0.914	0.934	≥ 1
S. aureus Newman, partner 1 µg/mL	≥ 1	0.967	0.882
S. aureus Newman, partner 2 µg/mL	0.888	0.931	0.769

N[C@@H]1CONC1=O [Cycloserine D] + CCCCCCCCCC(=O)N[C@@H]1[C@H]([C@@H]([C@H](O[C@H]1OC2=C3C=C4C=C2OC5=C(C=C(C=C5)[C@H]([C@H]6C(=O)N[C@@H](C7=C(C(=CC(=C7)O)OC8[C@H]([C@H]([C@@H]([C@H](O8)CO)O)O)O)C9=C(C=CC(=C9)[C@H](C(=O)N6)NC(=O)[C@@H]4NC(=O)[C@@H]1C2=CC(=CC(=C2)OC2=C(C=CC(=C2)[C@H](C(=O)N[C@H](CC2=CC(=C(O3)C=C2)Cl)C(=O)N1)N)O)O)O)C(=O)O)O[C@H]1[C@@H]([C@H]([C@@H]([C@H](O1)CO)O)O)NC(=O)C)Cl)CO)O)O [Teicoplanin]
fitness, main component drawn
Settings	first compound 0.375 µg/mL	first compound 0.75 µg/mL	first compound 1.5 µg/mL
S. aureus DSM 20231, partner 0.1562 µg/mL	≥ 1	≥ 1	0.989
S. aureus DSM 20231, partner 0.3125 µg/mL	≥ 1	≥ 1	≥ 1
S. aureus DSM 20231, partner 0.625 µg/mL	≥ 1	≥ 1	≥ 1
S. aureus Newman, partner 0.1562 µg/mL	≥ 1	≥ 1	0.975
S. aureus Newman, partner 0.3125 µg/mL	≥ 1	≥ 1	≥ 1
S. aureus Newman, partner 0.625 µg/mL	0.865	0.779	0.77

fitness, S. aureus Newman, one replicate, main component drawn
Settings	first compound 0.375 µg/mL	first compound 0.75 µg/mL	first compound 1.5 µg/mL
partner 0.62 µg/mL	0.831	0.783	0.894
partner 1.24 µg/mL	0.745	0.694	0.743
partner 2.48 µg/mL	0.368	0.341	0.377
